Measurements: US11754547B2, “Biorecognition elements for detection of fungi and bacteria in fuel systems” (priority 2020, dated 2023)

What was measured:
Experiment in all cases: Western blot of phage-displayed peptide BRE binding to biotinylated target peptide
[1] = tested on: CHI-P1 (SEQ. ID No. 25), Chitinase; set-up: species or system fungi; conditions: phage clone with biotinylated target peptide, streptavidin bead pull-down; FIG. 4
Source text: (§1) Recombinant phage clones were selected using X-Gal/IPTG, which produced a blue color on phage infected E. coli colonies. After the amplification of multiple phage isolates carrying a single heptapeptide sequence (i.e., monoclonal phages), genomic DNA was isolated and sequenced to determine the aa sequences of the peptide BREs. Isolated monoclonal phages were sequenced after each round of selection. After four rounds of selection, the phage pool was enriched for target-binding phages with specific sequences. […] The binding of phages displaying specific peptide BREs to the target was assessed by Western blot analysis. Monoclonal target-specific bacteriophages were incubated with biotinylated target peptide epitope under conditions similar to those used in biopanning. The resulting phage-target complexes were recovered using streptavidin-coated magnetic beads, and the phage-target complexes were resolved via SDS-PAGE and detected by Western blot using antibodies against the M13 phage capsid and the biotin molecule attached to the specific target. Western blotting was performed by preparing a 200 μL solution with each of the phage clones at a concentration of 1×10^11 pfu/mL in 1×TBS, pH 7.5. Then, 10 μL of biotinylated target peptide of concentration 1 mg/mL was added to each phage solution and incubated at 25° C. for 1 hr. […]

[2] = tested on: Gor-Fasciclin (SEQ. ID No. 58), Gordonia-Fasciclin; conditions: phage clone with biotinylated target peptide, streptavidin bead pull-down; FIG. 5
Chain of Gor-Fasciclin (SEQ. ID No. 58), Gordonia-Fasciclin (as listed by the source): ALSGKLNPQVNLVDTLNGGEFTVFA
Source text: as §1, with “hr. Phage-biotin target complexes were captured and pull-down with 25 μL of streptavidin-coated beads, and the captured complexes washed five times with 1×TBST. The pelleted complexes were re-suspended in 20 μL of 2× Laemmli Buffer, heated to 95° C. for 5 min, and resolved in a 14% SDS-PAGE gel. Proteins were blotted to a nitrocellulose membrane and blocked with TBST containing 5% BSA. To detect phages, a 1:2000 dilution of rabbit anti-M13 phage antibody (primary antibody) followed by a 1:5000 dilution of alkaline phosphatase (AP)-conjugated goat anti-rabbit antibody was used. For detection of biotinylated target, a 1:2000 dilution of AP-conjugated goat anti-biotin antibody was used. For colorimetric visualization, BCIP/NBT reagent was used.” for “hr.”

[3] = tested on: ALK-P3 (SEQ. ID No. 1), P450 Alkane Hydroxylase; set-up: species or system fungi; conditions: phage clone with biotinylated target peptide, streptavidin bead pull-down; FIG. 4
Chain of ALK-P3 (SEQ. ID No. 1), P450 Alkane Hydroxylase (as listed by the source): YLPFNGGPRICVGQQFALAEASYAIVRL
Source text: as §1

Substance	binding to Gor-Fasciclin (SEQ. ID No. 58) target, Western blot [2]	also measured
MPPHGDR (Artificial Sequence Obtained Through Biopanning) [SEQ. ID No. 26]		binding to CHI-P1 (SEQ. ID No. 25) target, Western blot [1]: specific binding
RSLGYTG (Artificial Sequence Obtained Through Biopanning) [SEQ. ID No. 60]	specific binding	
TWTLARP (Artificial Sequence Obtained Through Biopanning) [SEQ. ID No. 59]	specific binding	
WSLGYTG (Artificial Sequence Obtained Through Biopanning) [SEQ. ID No. 2]		binding to ALK-P3 (SEQ. ID No. 1) target, Western blot [3]: specific binding
YVPEWVS (Artificial Sequence Obtained Through Biopanning) [SEQ. ID No. 61]	specific binding	
